ChEMBL document CHEMBL5465560, “Selectivity Literature for EUbOPEN Chemogenomic Library” (2024)

How the values were obtained:
[1] = target: Myosin light chain kinase 2, skeletal/cardiac muscle (Homo sapiens) (UniProt Q9H1R3); assay: Selectivity interaction (KinomeScan (DiscoverX)) EUB0000229b MYLK2; conditions: at 10 µM
[2] = target: Serine/threonine-protein kinase 16 (Homo sapiens, UniProt O75716); assay: Selectivity interaction (KinomeScan (DiscoverX)) EUB0000229b STK16; conditions: at 10 µM
[3] = target: T1, Hormonally up-regulated neu tumor-associated kinase (Homo sapiens) (UniProt P57058); assay: Selectivity interaction (KinomeScan (DiscoverX)) EUB0001079a HUNK; conditions: at 1 µM
T1 sequence (whole entry): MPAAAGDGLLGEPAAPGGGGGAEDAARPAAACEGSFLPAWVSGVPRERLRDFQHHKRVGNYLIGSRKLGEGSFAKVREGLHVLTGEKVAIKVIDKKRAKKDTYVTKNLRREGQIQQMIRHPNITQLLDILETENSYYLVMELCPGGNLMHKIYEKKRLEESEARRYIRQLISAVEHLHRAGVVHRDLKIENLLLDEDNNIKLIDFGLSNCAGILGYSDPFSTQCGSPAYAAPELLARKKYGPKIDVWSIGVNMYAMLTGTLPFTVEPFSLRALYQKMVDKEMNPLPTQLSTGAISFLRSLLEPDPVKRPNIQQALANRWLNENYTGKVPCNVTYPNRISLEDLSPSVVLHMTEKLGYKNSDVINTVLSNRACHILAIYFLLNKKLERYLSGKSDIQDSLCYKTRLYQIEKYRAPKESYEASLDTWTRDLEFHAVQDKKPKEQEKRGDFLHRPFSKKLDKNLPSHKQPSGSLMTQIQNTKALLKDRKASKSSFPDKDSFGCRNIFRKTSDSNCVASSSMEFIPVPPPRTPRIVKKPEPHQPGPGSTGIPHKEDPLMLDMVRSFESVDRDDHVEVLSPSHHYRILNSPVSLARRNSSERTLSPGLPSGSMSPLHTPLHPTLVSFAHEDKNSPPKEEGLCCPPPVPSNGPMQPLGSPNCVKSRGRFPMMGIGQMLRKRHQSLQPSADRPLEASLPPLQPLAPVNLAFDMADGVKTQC

[4] = target: Casein kinase I isoform epsilon (Homo sapiens, UniProt P49674); assay: Selectivity interaction (Kinase panel (Z-LYTE Assay)) EUB0001632a CSNK1E; conditions: at 10 µM
Casein kinase I isoform epsilon, sequence (P49674 whole entry, looked up, canonical isoform): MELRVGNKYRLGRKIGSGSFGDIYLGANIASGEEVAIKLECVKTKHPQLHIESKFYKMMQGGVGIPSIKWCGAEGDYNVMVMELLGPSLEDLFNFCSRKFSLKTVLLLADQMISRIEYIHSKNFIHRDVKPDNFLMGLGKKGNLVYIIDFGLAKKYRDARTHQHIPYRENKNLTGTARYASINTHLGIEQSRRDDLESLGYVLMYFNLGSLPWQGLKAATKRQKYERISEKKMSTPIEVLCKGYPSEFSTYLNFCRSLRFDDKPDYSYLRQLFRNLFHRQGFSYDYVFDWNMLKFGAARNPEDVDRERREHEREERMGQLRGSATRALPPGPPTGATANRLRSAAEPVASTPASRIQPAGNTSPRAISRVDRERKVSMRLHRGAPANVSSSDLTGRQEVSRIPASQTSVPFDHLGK

[5] = target: T2, Serine/threonine-protein kinase TBK1 (Homo sapiens) (UniProt Q9UHD2); assay: Selectivity interaction (ActivX KiNativ screen (kinase selectivity in THP-1 cell lysates)) EUB0000639a TBK1; type: subcellular; conditions: lysate, at 0.04 µM
T2 sequence (whole entry): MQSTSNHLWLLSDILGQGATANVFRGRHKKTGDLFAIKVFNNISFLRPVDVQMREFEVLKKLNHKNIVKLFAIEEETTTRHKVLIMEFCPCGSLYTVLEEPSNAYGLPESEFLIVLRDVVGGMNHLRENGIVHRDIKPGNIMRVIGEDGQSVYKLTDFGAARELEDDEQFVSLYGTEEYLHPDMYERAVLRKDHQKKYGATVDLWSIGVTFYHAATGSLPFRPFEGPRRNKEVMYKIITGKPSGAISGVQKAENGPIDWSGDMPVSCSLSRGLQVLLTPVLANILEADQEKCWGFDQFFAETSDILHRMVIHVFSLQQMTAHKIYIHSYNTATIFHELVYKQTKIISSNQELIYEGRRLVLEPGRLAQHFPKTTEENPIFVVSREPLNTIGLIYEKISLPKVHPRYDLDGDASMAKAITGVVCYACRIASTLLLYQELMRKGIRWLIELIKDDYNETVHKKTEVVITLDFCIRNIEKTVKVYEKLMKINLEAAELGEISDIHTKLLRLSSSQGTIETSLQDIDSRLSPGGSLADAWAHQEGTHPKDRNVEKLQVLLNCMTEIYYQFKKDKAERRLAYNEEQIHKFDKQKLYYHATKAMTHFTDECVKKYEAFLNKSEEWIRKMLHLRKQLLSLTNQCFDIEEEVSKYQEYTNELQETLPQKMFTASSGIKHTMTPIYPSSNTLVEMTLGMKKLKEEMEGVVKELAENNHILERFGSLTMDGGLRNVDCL

[6] = target: T3, Calcium/calmodulin-dependent protein kinase type IV (Homo sapiens) (UniProt Q16566); conditions: at 10 µM
T3 sequence (whole entry): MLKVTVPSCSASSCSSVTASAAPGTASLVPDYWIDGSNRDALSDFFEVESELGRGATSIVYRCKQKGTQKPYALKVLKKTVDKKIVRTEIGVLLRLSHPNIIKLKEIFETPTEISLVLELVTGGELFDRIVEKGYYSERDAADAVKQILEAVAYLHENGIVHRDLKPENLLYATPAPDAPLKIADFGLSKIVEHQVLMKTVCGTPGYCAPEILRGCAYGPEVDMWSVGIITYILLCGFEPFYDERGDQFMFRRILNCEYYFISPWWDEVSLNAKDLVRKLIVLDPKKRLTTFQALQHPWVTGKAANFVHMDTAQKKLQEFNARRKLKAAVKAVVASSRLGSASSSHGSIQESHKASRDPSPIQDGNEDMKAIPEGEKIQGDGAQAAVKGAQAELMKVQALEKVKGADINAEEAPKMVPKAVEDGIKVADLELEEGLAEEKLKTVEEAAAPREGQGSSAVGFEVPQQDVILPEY

[7] = target: Tyrosine-protein kinase JAK1 (Homo sapiens, UniProt P23458); assay: Selectivity interaction (Antiproliferative activity against Tel-kinase transformed Ba/F3 cell line) EUB0000045b JAK1; type: cell-based; conditions: BaF3
Tyrosine-protein kinase JAK1, sequence (P23458 whole entry): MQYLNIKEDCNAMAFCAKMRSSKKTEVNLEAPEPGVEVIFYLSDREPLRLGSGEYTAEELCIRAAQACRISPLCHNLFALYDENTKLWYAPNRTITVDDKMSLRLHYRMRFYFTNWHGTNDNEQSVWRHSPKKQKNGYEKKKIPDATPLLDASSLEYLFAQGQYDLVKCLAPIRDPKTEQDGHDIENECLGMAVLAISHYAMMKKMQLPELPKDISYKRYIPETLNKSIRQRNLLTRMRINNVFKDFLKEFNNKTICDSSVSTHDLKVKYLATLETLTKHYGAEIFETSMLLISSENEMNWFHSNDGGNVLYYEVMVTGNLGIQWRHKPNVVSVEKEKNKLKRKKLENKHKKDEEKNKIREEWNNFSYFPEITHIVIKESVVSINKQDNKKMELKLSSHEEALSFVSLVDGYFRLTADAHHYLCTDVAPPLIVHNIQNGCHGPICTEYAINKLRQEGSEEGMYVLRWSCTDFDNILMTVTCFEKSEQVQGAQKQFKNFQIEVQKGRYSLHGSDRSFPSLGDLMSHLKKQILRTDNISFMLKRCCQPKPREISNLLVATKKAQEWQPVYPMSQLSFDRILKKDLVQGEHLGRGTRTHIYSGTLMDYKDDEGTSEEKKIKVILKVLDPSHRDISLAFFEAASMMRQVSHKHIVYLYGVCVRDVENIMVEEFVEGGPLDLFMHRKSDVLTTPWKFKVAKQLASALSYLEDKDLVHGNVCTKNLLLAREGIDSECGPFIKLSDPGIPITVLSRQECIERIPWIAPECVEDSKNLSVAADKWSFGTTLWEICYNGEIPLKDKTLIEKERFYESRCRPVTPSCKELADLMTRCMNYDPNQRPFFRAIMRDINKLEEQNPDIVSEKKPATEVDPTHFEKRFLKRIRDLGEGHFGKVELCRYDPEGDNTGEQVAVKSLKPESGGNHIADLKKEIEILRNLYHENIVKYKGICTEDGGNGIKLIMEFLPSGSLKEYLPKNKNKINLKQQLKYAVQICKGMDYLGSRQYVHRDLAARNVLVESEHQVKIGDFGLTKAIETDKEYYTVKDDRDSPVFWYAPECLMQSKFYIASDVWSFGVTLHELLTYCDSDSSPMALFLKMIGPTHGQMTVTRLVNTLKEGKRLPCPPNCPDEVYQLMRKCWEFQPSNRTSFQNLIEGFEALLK

[8] = target: Histone-lysine N-methyltransferase KMT5C (Homo sapiens) (UniProt Q86Y97); conditions: at 1 µM
Histone-lysine N-methyltransferase KMT5C (Homo sapiens), sequence (Q86Y97 whole entry, looked up): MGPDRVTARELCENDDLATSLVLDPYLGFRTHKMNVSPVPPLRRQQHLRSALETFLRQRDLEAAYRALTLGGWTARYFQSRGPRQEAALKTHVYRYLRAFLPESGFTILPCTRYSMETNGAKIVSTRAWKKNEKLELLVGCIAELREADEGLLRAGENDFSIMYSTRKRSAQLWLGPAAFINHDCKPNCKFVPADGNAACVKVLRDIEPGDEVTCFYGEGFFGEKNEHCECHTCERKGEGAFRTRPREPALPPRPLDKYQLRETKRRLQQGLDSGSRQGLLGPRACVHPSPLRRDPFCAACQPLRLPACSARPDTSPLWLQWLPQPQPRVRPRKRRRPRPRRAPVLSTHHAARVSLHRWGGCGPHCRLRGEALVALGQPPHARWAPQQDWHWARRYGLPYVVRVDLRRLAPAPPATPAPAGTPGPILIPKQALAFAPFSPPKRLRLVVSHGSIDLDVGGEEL

Myosin light chain kinase 2, skeletal/cardiac muscle (Homo sapiens), sequence (Q9H1R3 whole entry): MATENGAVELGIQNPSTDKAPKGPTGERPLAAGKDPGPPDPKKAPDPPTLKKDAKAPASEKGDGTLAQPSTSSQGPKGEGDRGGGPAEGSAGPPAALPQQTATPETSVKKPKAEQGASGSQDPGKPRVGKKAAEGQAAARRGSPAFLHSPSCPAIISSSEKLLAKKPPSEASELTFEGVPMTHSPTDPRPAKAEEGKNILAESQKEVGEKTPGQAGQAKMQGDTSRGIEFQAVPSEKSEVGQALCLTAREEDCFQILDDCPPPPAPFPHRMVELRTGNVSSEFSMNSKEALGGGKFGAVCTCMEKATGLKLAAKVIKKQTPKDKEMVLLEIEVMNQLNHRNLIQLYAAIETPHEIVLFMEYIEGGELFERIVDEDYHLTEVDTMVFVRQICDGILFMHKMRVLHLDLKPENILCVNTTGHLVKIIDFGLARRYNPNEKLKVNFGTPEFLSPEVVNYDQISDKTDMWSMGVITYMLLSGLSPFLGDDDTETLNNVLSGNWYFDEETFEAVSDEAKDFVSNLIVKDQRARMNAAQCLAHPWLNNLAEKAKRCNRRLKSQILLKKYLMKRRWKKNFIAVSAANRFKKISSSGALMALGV
Serine/threonine-protein kinase 16, sequence (O75716 whole entry): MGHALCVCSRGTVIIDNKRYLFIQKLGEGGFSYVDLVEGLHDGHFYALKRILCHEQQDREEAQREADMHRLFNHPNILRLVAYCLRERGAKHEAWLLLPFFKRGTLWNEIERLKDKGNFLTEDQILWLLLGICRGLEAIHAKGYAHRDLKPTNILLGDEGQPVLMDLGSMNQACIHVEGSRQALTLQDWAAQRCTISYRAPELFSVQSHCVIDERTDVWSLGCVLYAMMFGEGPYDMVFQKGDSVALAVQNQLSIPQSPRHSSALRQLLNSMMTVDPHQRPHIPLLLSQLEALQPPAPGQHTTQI

COc1cc(N(C)c2ccnc3ccc(C(F)(F)F)cc23)cc(OC)c1OC
% binding [1]: 75%
% binding [2]: 90%

Nc1cnc(N2CCc3cc(S(=O)(=O)Nc4c(F)cc(Cl)cc4F)cc(N4CCCC4=O)c32)nc1 [TP-020n]
% of control [3]: 99%

Cn1cc(-n2cnc3c(NCc4nc5cc(Cl)c(Cl)cc5[nH]4)nc(N4CCOCC4)nc32)cn1
% of control [4]: 48.9%

CC[C@@H]1[C@H](F)C(=O)N[C@@H]1COc1nccc2cc(C(N)=O)c(OC)cc12 [ZIMLOVISERTIB]
% of inhibition [5]: -7.8%

COCC(=O)NC/C=C/c1ccc2ncnc(Nc3ccc(Oc4ccc(C)nc4)c(C)c3)c2c1 [CP-724714]
% of control [6]: 86%

C=CC(=O)Nc1cc(-n2c(=O)ccc3cnc4ccc(-c5ccc(NS(C)(=O)=O)cc5)cc4c32)ccc1C
GIC50 [7]: 4.92 µM

CNCCN1CCC(c2cc(CN(C)C(=O)c3cccc(Oc4ccccc4)c3)ccn2)CC1
% activity [8]: > 90%
